Read-outs that look alike come from different tables or passages of the source.
Columns and labels:
[1] = tested on: RNA polymerase II phosphorylation (P-Ser-2, P-Ser-5); test: Inhibition of phosphorylation of RNA polymerase II (immunoblot, MCF-7 cells); assay type: cell-based; settings: MCF-7 cells treated 4 hours
Procedure: MCF-7 breast cancer cells were treated with BS-181 or Roscovitine at the concentrations shown in FIG. 2 for 4 hours prior to harvesting of cells. […] Immunblotting for β-actin was used as loading control for protein content.

IGROV1 = test: cells; settings: Homo sapiens
RPMI-8226 [2] = test: cells; settings: Homo sapiens
EKVX = test: cells; settings: Homo sapiens
T-47D = test: cells; settings: Homo sapiens, T47D
ACHN = settings: for Mean Optical Densities / Percent Growth: ACHN
NCI-H460 = test: cells; settings: Homo sapiens
CCRF-CEM = test: cells; settings: Homo sapiens
SK-OV-3 = test: cells; settings: Homo sapiens
HS 578T = settings: for Mean Optical Densities / Percent Growth: HS 578T
LOX IMVI [3] = test: cells; settings: Homo sapiens
UO-31 [4] = test: cells; settings: Homo sapiens
UO-31 [5] = tested on: UO-31
SNB-75 = test: cells; settings: Homo sapiens
LOX IMVI [6] = settings: for Mean Optical Densities / Percent Growth: LOX IMVI
RPMI-8226 [7] = tested on: RPMI-8226
HCT-116 = test: cells; settings: Homo sapiens
[8] = UO-31, log10 concentration −4.0
[9] = UO-31, log10 concentration −5.0
[10] = UO-31, log10 concentration −6.0
[11] = UO-31, log10 concentration −7.0
[12] = UO-31, log10 concentration −8.0
[13] = TK-10, log10 concentration −4.0
[14] = TK-10, log10 concentration −5.0
[15] = TK-10, log10 concentration −6.0
[16] = TK-10, log10 concentration −7.0
[17] = TK-10, log10 concentration −8.0
[18] = MOLT-4, log10 concentration −4.0
[19] = MOLT-4, log10 concentration −6.0
[20] = MOLT-4, log10 concentration −7.0
[21] = MOLT-4, log10 concentration −8.0
[22] = UACC-257, log10 concentration −4.0
[23] = UACC-257, log10 concentration −5.0
[24] = UACC-257, log10 concentration −6.0
[25] = UACC-257, log10 concentration −7.0
[26] = UACC-257, log10 concentration −8.0
[27] = RPMI-8226, log10 concentration −4.0
[28] = RPMI-8226, log10 concentration −5.0
[29] = RPMI-8226, log10 concentration −6.0
[30] = RPMI-8226, log10 concentration −7.0
[31] = RPMI-8226, log10 concentration −8.0

`CC(C)c1cnn2c(NCc3ccccc3)cc(NCCCCCCCN)nc12` [BS-181] was tested, and the “Inhibition of phosphorylation of RNA polymerase II” value [1] was “capable of inhibiting phosphorylation of RNAPolymerase II”.

In the case of `CC(C)c1cnn2c(NCc3ccccc3)cc(N[C@@H](CO)[C@H](O)CO)nc12` [ICEC0318, (3S)-3-(7-(Benzylamino)-3-isopropylpyrazolo[1,5-a]pyrimidin-5-ylamino)butane-1,2,4-triol], the GI50 (IGROV1; IGROV-1) was 210 nM, the CC50 (IGROV1; IGROV-1, read-out: LC50) was greater than 100000 nM and the GI50 (RPMI-8226 [2]; RPMI-8226) was 227 nM. For the same molecule, the CC50 (RPMI-8226 [2]; RPMI-8226, read-out: LC50) was greater than 100000 nM, the GI50 (EKVX) was 286 nM and the CC50 (EKVX; read-out: LC50) was greater than 100000 nM. For the same molecule, the GI50 (T-47D) was 305 nM, the CC50 (T-47D; read-out: LC50) was greater than 100000 nM and the TGI (ACHN; ACHN (Renal Cancer)) was greater than 1.00E−4. For the same molecule, the “Mean Optical Densities” value (ACHN; log10 concentration −4.0) was 0.343, the “Percent Growth” value (ACHN; log10 concentration −4.0) was 5% and the “Mean Optical Densities” value (ACHN; log10 concentration −5.0) was 0.347. For the same molecule, the “Percent Growth” value (ACHN; log10 concentration −5.0) was 5%, the “Mean Optical Densities” value (ACHN; log10 concentration −6.0) was 0.358 and the “Percent Growth” value (ACHN; log10 concentration −6.0) was 6%. The “Mean Optical Densities” value (ACHN; log10 concentration −7.0) was 1.080, the “Percent Growth” value (ACHN; log10 concentration −7.0) was 75% and the “Mean Optical Densities” value (ACHN; log10 concentration −8.0) was 1.302. For the same molecule, the “Percent Growth” value (ACHN; log10 concentration −8.0) was 96%, the GI50 (NCI-H460; NCI-H460) was 258 nM and the CC50 (NCI-H460; NCI-H460, read-out: LC50) was greater than 100000 nM. The GI50 (CCRF-CEM) was 342 nM, the GI50 (SK-OV-3; SK-OV-3) was 565 nM and the CC50 (SK-OV-3; SK-OV-3, read-out: LC50) was greater than 100000 nM. The TGI (MCF7; MCF7 (Breast Cancer)) was greater than 1.00E−4, the “Mean Optical Densities” value (MCF7; MCF7, log10 concentration −4.0) was 0.229 and the “Percent Growth” value (MCF7; MCF7, log10 concentration −4.0) was 6%. For the same molecule, the “Mean Optical Densities” value (MCF7; MCF7, log10 concentration −5.0) was 0.237, the “Percent Growth” value (MCF7; MCF7, log10 concentration −5.0) was 7% and the “Mean Optical Densities” value (MCF7; MCF7, log10 concentration −6.0) was 0.244. The “Percent Growth” value (MCF7; MCF7, log10 concentration −6.0) was 7%, the “Mean Optical Densities” value (MCF7; MCF7, log10 concentration −7.0) was 0.805 and the “Percent Growth” value (MCF7; MCF7, log10 concentration −7.0) was 72%. For the same molecule, the “Mean Optical Densities” value (MCF7; MCF7, log10 concentration −8.0) was 1.098, the “Percent Growth” value (MCF7; MCF7, log10 concentration −8.0) was 107% and the TGI (HS 578T; HS 578T (Breast Cancer)) was 8.54E−7. For the same molecule, the “Mean Optical Densities” value (HS 578T; log10 concentration −4.0) was 0.314, the “Percent Growth” value (HS 578T; log10 concentration −4.0) was −22% and the “Mean Optical Densities” value (HS 578T; log10 concentration −5.0) was 0.352. The “Percent Growth” value (HS 578T; log10 concentration −5.0) was −12%, the “Mean Optical Densities” value (HS 578T; log10 concentration −6.0) was 0.373 and the “Percent Growth” value (HS 578T; log10 concentration −6.0) was −7%. The “Mean Optical Densities” value (HS 578T; log10 concentration −7.0) was 0.803, the “Percent Growth” value (HS 578T; log10 concentration −7.0) was 95% and the “Mean Optical Densities” value (HS 578T; log10 concentration −8.0) was 0.867. The “Percent Growth” value (HS 578T; log10 concentration −8.0) was 110%, the GI50 (LOX IMVI [3]) was 171 nM and the CC50 (LOX IMVI [3]; read-out: LC50) was greater than 100000 nM. The GI50 (UO-31 [4]; UO-31) was 289 nM, the CC50 (UO-31 [4]; UO-31, read-out: LC50) was greater than 100000 nM and the TGI (UO-31 [5]; UO-31 (Renal Cancer)) was 2.07E−5. The “Mean Optical Densities” value (UO-31 [5]; [8]) was 0.522, the “Percent Growth” value (UO-31 [5]; [8]) was −4% and the “Mean Optical Densities” value (UO-31 [5]; [9]) was 0.557. For the same molecule, the “Percent Growth” value (UO-31 [5]; [9]) was 2%, the “Mean Optical Densities” value (UO-31 [5]; [10]) was 0.578 and the “Percent Growth” value (UO-31 [5]; [10]) was 4%. For the same molecule, the “Mean Optical Densities” value (UO-31 [5]; [11]) was 1.371, the “Percent Growth” value (UO-31 [5]; [11]) was 89% and the “Mean Optical Densities” value (UO-31 [5]; [12]) was 1.378. For the same molecule, the “Percent Growth” value (UO-31 [5]; [12]) was 90%, the GI50 (SNB-75; SNB-75) was 222 nM and the CC50 (SNB-75; SNB-75, read-out: LC50) was 1600 nM. For the same molecule, the TGI (TK-10; TK-10 (Renal Cancer)) was greater than 1.00E−4, the “Mean Optical Densities” value (TK-10; [13]) was 0.610 and the “Percent Growth” value (TK-10; [13]) was 18%. For the same molecule, the “Mean Optical Densities” value (TK-10; [14]) was 0.593, the “Percent Growth” value (TK-10; [14]) was 15% and the “Mean Optical Densities” value (TK-10; [15]) was 0.572. The “Percent Growth” value (TK-10; [15]) was 12%, the “Mean Optical Densities” value (TK-10; [16]) was 1.192 and the “Percent Growth” value (TK-10; [16]) was 101%. For the same molecule, the “Mean Optical Densities” value (TK-10; [17]) was 1.202, the “Percent Growth” value (TK-10; [17]) was 103% and the TGI (LOX IMVI [6]; LOX IMVI (Melanoma)) was 1.46E−5. For the same molecule, the “Mean Optical Densities” value (LOX IMVI [6]; log10 concentration −4.0) was 0.224, the “Percent Growth” value (LOX IMVI [6]; log10 concentration −4.0) was −19% and the “Mean Optical Densities” value (LOX IMVI [6]; log10 concentration −5.0) was 0.328. For the same molecule, the “Percent Growth” value (LOX IMVI [6]; log10 concentration −5.0) was 4%, the “Mean Optical Densities” value (LOX IMVI [6]; log10 concentration −6.0) was 0.326 and the “Percent Growth” value (LOX IMVI [6]; log10 concentration −6.0) was 4%. For the same molecule, the “Mean Optical Densities” value (LOX IMVI [6]; log10 concentration −7.0) was 1.208, the “Percent Growth” value (LOX IMVI [6]; log10 concentration −7.0) was 64% and the “Mean Optical Densities” value (LOX IMVI [6]; log10 concentration −8.0) was 1.614. For the same molecule, the “Percent Growth” value (LOX IMVI [6]; log10 concentration −8.0) was 92%, the TGI (MOLT-4; MOLT-4 (Leukemia)) was greater than 1.00E−4 and the “Mean Optical Densities” value (MOLT-4; [18]) was 0.449. For the same molecule, the “Percent Growth” value (MOLT-4; [18]) was 15%, the “Mean Optical Densities” value (MOLT-4; MOLT-4, log10 concentration −5.0) was 0.329 and the “Mean Optical Densities” value (MOLT-4; [19]) was 0.368. The “Percent Growth” value (MOLT-4; [19]) was 5%, the “Mean Optical Densities” value (MOLT-4; [20]) was 0.987 and the “Percent Growth” value (MOLT-4; [20]) was 82%. The “Mean Optical Densities” value (MOLT-4; [21]) was 1.072, the “Percent Growth” value (MOLT-4; [21]) was 92% and the TGI (UACC-257; UACC-257 (Melanoma)) was 3.88E−5. The “Mean Optical Densities” value (UACC-257; [22]) was 0.848, the “Percent Growth” value (UACC-257; [22]) was −4% and the “Mean Optical Densities” value (UACC-257; [23]) was 0.933. The “Percent Growth” value (UACC-257; [23]) was 5%, the “Mean Optical Densities” value (UACC-257; [24]) was 0.948 and the “Percent Growth” value (UACC-257; [24]) was 7%. The “Mean Optical Densities” value (UACC-257; [25]) was 1.891, the “Percent Growth” value (UACC-257; [25]) was 100% and the “Mean Optical Densities” value (UACC-257; [26]) was 1.906. For the same molecule, the “Percent Growth” value (UACC-257; [26]) was 102%, the TGI (RPMI-8226 [7]; RPMI-8226 (Leukemia)) was greater than 1.00E−4 and the “Mean Optical Densities” value (RPMI-8226 [7]; [27]) was 0.249. The “Percent Growth” value (RPMI-8226 [7]; [27]) was 7%, the “Mean Optical Densities” value (RPMI-8226 [7]; [28]) was 0.302 and the “Percent Growth” value (RPMI-8226 [7]; [28]) was 18%. The “Mean Optical Densities” value (RPMI-8226 [7]; [29]) was 0.311, the “Percent Growth” value (RPMI-8226 [7]; [29]) was 19% and the “Mean Optical Densities” value (RPMI-8226 [7]; [30]) was 0.556. The “Percent Growth” value (RPMI-8226 [7]; [30]) was 67%, the “Mean Optical Densities” value (RPMI-8226 [7]; [31]) was 0.595 and the “Percent Growth” value (RPMI-8226 [7]; [31]) was 75%. For the same molecule, the GI50 (HCT-116; HCT-116) was 161 nM and the CC50 (HCT-116; HCT-116, read-out: LC50) was greater than 100000 nM.

From US8067424B2, “Selective inhibitors for cyclin-dependent kinases” (Emory University, priority 2007, dated 2011)
